Data on six compounds can be found in patent US20240209028A1, “CNP COMPOUNDS” (priority 2022, published 2024).

The structures appear in SMILES notation. Starred links: 1 amine or outer side, 2 acyl side, 3 side chain; linkers in the order of their positions; H or OH if unused. Positions of bridges follow the written chain, without caps; N, C: chain ends. Residues, ends and D or L forms follow the SMILES beside them. *: point of attachment. C18 diacid = O=C(O)CCCCCCCCCCCCCCCCC(=O)*; γGlu = O=C(O)[C@H](CCC(=O)[*:2])N[*:1]; AEEA = NCCOCCOCC(=O)O

Series [1] in a line: CNP local tolerance study in LYD pigs (s.c. injection, histopathology). In kind it is in vivo, domestic LYD pig. To be noted: for assessment for human subcutaneous administration: based on pig local tolerance. The source says: The purpose of this study was to evaluate the local tissue reaction response to subcutaneous injection of CNP compounds in pigs.
Procedure: In domestic pigs, the injection site was subjected to histopathologic examination after subcutaneous dosing. Injections were placed mid-back between the shoulder and hip on both sides of the dorsal midline, and one or two days before injection sites of 2×2 cm were shaved and marked by permanent ink under light anaesthesia. Each injection consisted of 100 or 200 μl formulation with a concentration of approx. 4400 μM. CNP compound formulations were prepared according to the principles in General Methods of Preparation—Method G, and were either A) 8 mM sodium phosphate, 250 mM glycerol, pH 6.5, B) 5 mM sodium acetate, 250 mM glycerol, pH 4.0 or C) 5 mM sodium acetate, 240 mM propylene glycol, pH 4.0 and physiological saline was included as negative control.
On Day 1 the pigs were lightly anaesthetised. An insulin pen (NovoPen 4) and insulin needle (NovoTwist 32G/5 mm) were used for accurate deposition of the CNP formulations in the subcutaneous fat tissue with the needle perpendicular to the skin. On Day 5 (4 days post injection) or 6 (5 days post injection), the pigs were euthanised, and the injection sites were removed and fixed in 4% phosphate buffered neutral formaldehyde in sealed plastic containers. The tissue blocks were prefixed for 2-4 hours in 10% buffered formalin, cut into 2 mm thick slabs with a multi knife, examined for macroscopic changes and finally fixed overnight in cassettes. Two slabs of tissue were selected for light microscopic evaluation where the tissue reaction was maximal or alternatively in the central part of the injection site. Three to four 2-4 μm sections were cut from three levels at 100 μm distance, stained with haematoxylin and eosin (H&E) and evaluated in a light microscope. Histopathological changes were graded on a 5-level scale ((Minimal (Min), Mild (Mil), Moderate (Mod), Marked (Mar) and Severe (Sev)). The studies are summarised in Table 18.
Results: The results are summarised in Table 19. * Necrosis was used as a marker for local subcutaneous reactions; **NAD: No Abnormalities Detected

For the next series, the system named is mouse metatarsal bones. Description: Mouse metatarsal bone dissection and culture (ex vivo bone growth). As to conditions: 100 nM, n=8. Type of series: cell-based, mouse (NMRI). The method, then:
The purpose of this study was to evaluate bone growth after administration of CNP compounds in an ex vivo mouse model.
Procedure: One-day old mouse pups (NMRI, Javier Labs France) were euthanised prior to dissection. All applicable international and internal Novo Nordisk guidelines for care and use of animals were followed. The three middle metatarsal bones were dissected out from each hind paw. The dissected bones were placed in 24-well cell culture plates and cultured in 400 μl a-Minimum Essential Media supplemented with 0.2% BSA, 1% Pen/Strep at 37° C. and 5% CO2. The bones from all animals were randomised into a control group and six CNP compound-treated groups (100 nM; n=8). The medium was changed every 2-3 days. All compounds were formulated according to the principles described in General Methods of Preparation—Method G. Compounds 9435 and 9483 were formulated in A) 5 mM sodium acetate, 250 mM glycerol, pH 4.0 while compounds 9384, 9407, 9480 and 9482 were formulated in B) 8 mM sodium phosphate, 250 mM glycerol, pH 7.4.
Digital pictures were captured on day 0, 4, 7, 11, and 14 using a digital camera attached to a Nikon microscope. The length of each metatarsal bone was measured using ImageJ software and increase in bone length was expressed as percentage change from the length measured at the day of dissection (Mean (SD)).
In Table 27, metatarsal bones were isolated from mice and cultured for up to 14 days. Length was measured every 3-4 days throughout the study and expressed as percentage change from day 0 (Mean (SD)). Statistically significant differences are indicated compared to control group (two-way ANOVA).

Where [2] appears, read: LYD pig, s.c., approx. 4400 μM, 4 or 5 days after injection.
The mark [3] stands for this setting: 5 days after subcutaneous injections in the pig.

As to `CC[C@H](C)[C@@H]1NC(=O)[C@H](CCCNC(=N)N)NC(=O)[C@H](CC(=O)O)NC(=O)[C@H](CC(C)C)NC(=O)[C@@H]2CCCN2C(=O)[C@H](CC(C)C)NC(=O)CNC(=O)[C@H](Cc2ccccc2)NC(=O)[C@@H](NC(=O)CNC(=O)[C@H](CCC(N)=O)NC(=O)[C@H](CO)NC(=O)CNC(=O)CNC(=O)[C@H](CCCCN)NC(=O)[C@H](CCCCN)NC(=O)[C@H](CCC(N)=O)NC(=O)[C@H](C)NC(=O)CNC(=O)[C@H](CCCCN)NC(=O)[C@H](Cc2ccc(O)cc2)NC(=O)COCCOCCNC(=O)COCCOCCNC(=O)COCCOCCNC(=O)COCCOCCNC(=O)CC[C@H](NC(=O)CC[C@H](NC(=O)CCCCCCCCCCCCCCCCC(=O)O)C(=O)O)C(=O)O)CSSC[C@@H](C(=O)O)NC(=O)CNC(=O)[C@H](CC(C)C)NC(=O)CNC(=O)[C@H](CO)NC(=O)[C@H](CC(C)C)NC(=O)[C@H](CO)NC(=O)CNC1=O` [Compound 9435] ({C18 diacid-γGlu-γGlu-AEEA-AEEA-AEEA-AEEA}-YKGAQKKGGSQGCFGLPLDRIGSLSGLGC-OH; disulfide 13-29), in series [1] (setting [2]), the “Number of injections by severity of necrosis: Mild” value is recorded as 1 and the “Number of injections by severity of necrosis: Min.” value is 3.

For the compound `CC[C@H](C)[C@@H]1NC(=O)[C@H](CCCNC(=N)N)NC(=O)[C@H](CC(=O)O)NC(=O)[C@H](CC(C)C)NC(=O)[C@@H]2CCCN2C(=O)[C@H](CC(C)C)NC(=O)CNC(=O)[C@H](Cc2ccccc2)NC(=O)[C@@H](NC(=O)CNC(=O)[C@H](CCC(N)=O)NC(=O)[C@H](CO)NC(=O)[C@H](CC(C)C)NC(=O)CNC(=O)[C@H](CCCCN)NC(=O)[C@H](CCCCN)NC(=O)[C@H](CCC(N)=O)NC(=O)[C@H](C)NC(=O)CNC(=O)[C@H](CCCCN)NC(=O)[C@H](Cc2ccc(O)cc2)NC(=O)COCCOCCNC(=O)COCCOCCNC(=O)COCCOCCNC(=O)COCCOCCNC(=O)CC[C@H](NC(=O)CC[C@H](NC(=O)CC[C@H](NC(=O)CCCCCCCCCCCCCCCCC(=O)O)C(=O)O)C(=O)O)C(=O)O)CSSC[C@@H](C(=O)O)NC(=O)CNC(=O)[C@H](CC(C)C)NC(=O)CNC(=O)[C@H](CO)NC(=O)[C@H](CC(C)C)NC(=O)[C@H](CO)NC(=O)CNC1=O` [Compound 9480] ({C18 diacid-γGlu-γGlu-γGlu-AEEA-AEEA-AEEA-AEEA}-YKGAQKKGLSQGCFGLPLDRIGSLSGLGC-OH; disulfide 13-29), the “Number of injections by severity of necrosis: NAD” value in series [1] (setting [2]) is recorded as 4.

As for `CC[C@H](C)[C@@H]1NC(=O)[C@H](CCCNC(=N)N)NC(=O)[C@H](CC(=O)O)NC(=O)[C@H](CC(C)C)NC(=O)[C@@H]2CCCN2C(=O)[C@H](CC(C)C)NC(=O)CNC(=O)[C@H](Cc2ccccc2)NC(=O)[C@@H](NC(=O)CNC(=O)[C@H](CO)NC(=O)[C@H](CO)NC(=O)[C@H](CC(C)C)NC(=O)CNC(=O)[C@H](CCCCN)NC(=O)[C@H](CCCCN)NC(=O)[C@H](CCC(N)=O)NC(=O)[C@H](C)NC(=O)CNC(=O)[C@H](CCCCN)NC(=O)[C@H](Cc2ccc(O)cc2)NC(=O)[C@H](CCCCN)NC(=O)[C@H](CCCNC(=N)N)NC(=O)[C@H](C)NC(=O)[C@H](CCC(N)=O)NC(=O)[C@@H]2CCCN2C(=O)[C@H](Cc2c[nH]cn2)NC(=O)[C@H](CCC(=O)O)NC(=O)[C@H](CCC(N)=O)NC(=O)CC[C@H](NC(=O)CC[C@H](NC(=O)CC[C@H](NC(=O)CC[C@H](NC(=O)CC[C@H](NC(=O)CCCCCCCCCCCCCCCCC(=O)O)C(=O)O)C(=O)O)C(=O)O)C(=O)O)C(=O)O)CSSC[C@@H](C(=O)O)NC(=O)CNC(=O)[C@H](CC(C)C)NC(=O)CNC(=O)[C@H](CO)NC(=O)[C@H](CC(C)C)NC(=O)[C@H](CO)NC(=O)CNC1=O` [Compound 9482] ({C18 diacid-γGlu-γGlu-γGlu-γGlu-γGlu}-QEHPQARKYKGAQKKGLSSGCFGLPLDRIGSLSGLGC-OH; disulfide 21-37), the “Number of injections by severity of necrosis: NAD” value in series [1] (setting [2]) was found to be 4.

Regarding `CC[C@H](C)[C@@H]1NC(=O)[C@H](CCCNC(=N)N)NC(=O)[C@H](CC(=O)O)NC(=O)[C@H](CC(C)C)NC(=O)[C@H](CCCCN)NC(=O)[C@H](CC(C)C)NC(=O)CNC(=O)[C@H](Cc2ccccc2)NC(=O)[C@@H](NC(=O)CNC(=O)[C@H](CCCCN)NC(=O)[C@H](CO)NC(=O)[C@H](CC(C)C)NC(=O)CNC(=O)[C@H](CCCCN)NC(=O)[C@H](CCCCN)NC(=O)[C@H](CCC(N)=O)NC(=O)[C@H](C)NC(=O)CNC(=O)[C@H](Cc2c[nH]cn2)NC(=O)[C@H](CCC(=O)O)NC(=O)COCCOCCNC(=O)COCCOCCNC(=O)CC[C@H](NC(=O)CCCCCCCCCCCCCCCCC(=O)O)C(=O)O)CSSC[C@@H](C(=O)O)NC(=O)CNC(=O)[C@H](CC(C)C)NC(=O)CNC(=O)[C@H](CO)NC(=O)[C@H](CC(C)C)NC(=O)[C@H](CO)NC(=O)CNC1=O` [compound 1235], the local subcutaneous necrosis result in series [1] (pig, in vivo, sc) is “minimal to mild”.

With `CC[C@H](C)[C@@H]1NC(=O)[C@H](CCCNC(=N)N)NC(=O)[C@H](CC(=O)O)NC(=O)[C@H](CC(C)C)NC(=O)[C@@H]2CCCN2C(=O)[C@H](CC(C)C)NC(=O)CNC(=O)[C@H](Cc2ccccc2)NC(=O)[C@@H](NC(=O)CNC(=O)[C@H](CCC(N)=O)NC(=O)[C@H](CO)NC(=O)CNC(=O)CNC(=O)[C@H](CCCCN)NC(=O)[C@H](CCCCN)NC(=O)[C@H](CCC(N)=O)NC(=O)[C@H](C)NC(=O)CNC(=O)[C@H](CCCCN)NC(=O)[C@H](Cc2ccc(O)cc2)NC(=O)COCCOCCNC(=O)COCCOCCNC(=O)COCCOCCNC(=O)COCCOCCNC(=O)CC[C@H](NC(=O)CC[C@H](NC(=O)CCCCCCCCCCCCCCCCC(=O)O)C(=O)O)C(=O)O)CSSC[C@@H](C(=O)O)NC(=O)CNC(=O)[C@H](CC(C)C)NC(=O)CNC(=O)[C@H](CO)NC(=O)[C@H](CC(C)C)NC(=O)[C@H](CO)NC(=O)CNC1=O` [compound 9435] ({C18 diacid-γGlu-γGlu-AEEA-AEEA-AEEA-AEEA}-YKGAQKKGGSQGCFGLPLDRIGSLSGLGC-OH; disulfide 13-29; C-terminus assumed), the local subcutaneous necrosis entry in series [1] (setting [3]) was “minimal to mild”. Besides, the “assessment for human subcutaneous administration” value in series [1] is reported as “acceptable”. The “Increase in bone length, mean (%) change from day 0” value in the series with mouse metatarsal bones (day 4 in culture) came out at 36.2%; in the series with mouse metatarsal bones (day 7 in culture) it was 47.3%; with mouse metatarsal bones (day 11 in culture), 53.9%; in the series on mouse metatarsal bones (day 14 in culture) it was 59.2%.

As to `CC[C@H](C)[C@@H]1NC(=O)[C@H](CCCNC(=N)N)NC(=O)[C@H](CC(=O)O)NC(=O)[C@H](CC(C)C)NC(=O)[C@@H]2CCCN2C(=O)[C@H](CC(C)C)NC(=O)CNC(=O)[C@H](Cc2ccccc2)NC(=O)[C@@H](NC(=O)CNC(=O)[C@H](CCC(N)=O)NC(=O)[C@H](CO)NC(=O)[C@H](CC(C)C)NC(=O)CNC(=O)[C@H](CCCCN)NC(=O)[C@H](CCCCN)NC(=O)[C@H](CCC(N)=O)NC(=O)[C@H](C)NC(=O)CNC(=O)[C@H](CCCCN)NC(=O)[C@H](Cc2ccc(O)cc2)NC(=O)COCCOCCNC(=O)COCCOCCNC(=O)COCCOCCNC(=O)COCCOCCNC(=O)CC[C@H](NC(=O)CC[C@H](NC(=O)CC[C@H](NC(=O)CCCCCCCCCCCCCCCCC(=O)O)C(=O)O)C(=O)O)C(=O)O)CSSC[C@@H](C(=O)O)NC(=O)CNC(=O)[C@H](CC(C)C)NC(=O)CNC(=O)[C@H](CO)NC(=O)[C@H](CC(C)C)NC(=O)[C@H](CO)NC(=O)CNC1=O` [compound 9480] ({C18 diacid-γGlu-γGlu-γGlu-AEEA-AEEA-AEEA-AEEA}-YKGAQKKGLSQGCFGLPLDRIGSLSGLGC-OH; disulfide 13-29), in series [1] (setting [3]), the local subcutaneous necrosis result is “no”. For the same compound, the “assessment for human subcutaneous administration” value in series [1] was “acceptable”. The “Increase in bone length, mean (%) change from day 0” value in the series on mouse metatarsal bones (day 4 in culture) amounted to 33.1%; in the series on mouse metatarsal bones (day 7 in culture), 43.9%; in the series with mouse metatarsal bones (day 11 in culture), 49.2%; with mouse metatarsal bones (day 14 in culture) it was 52.1%.
